The source made the active and inactive calls. The rule behind the calls is not given here.
Experiments:
Format in all cases: cell-based
HEK293 [1] = experiment: Inhibition of protein phosphatase-1 in human HEK293 cells assessed as increase in exon 7 inclusion in the survival of motor neuron 2 gene at 10 to 100 uM after 14 to 16 hrs by RT-PCR analysis
HEK293 [2] = experiment: Inhibition of protein phosphatase-1 in human HEK293 cells assessed as increase in exon 7 inclusion in the survival of motor neuron 2 gene after 14 to 16 hrs by RT-PCR analysis
HEK293 [3] = experiment: Inhibition of protein phosphatase-1 in human HEK293 cells assessed as exon 7 inclusion in the survival of motor neuron 2 gene at 1 to 100 uM after 14 to 16 hrs by RT-PCR analysis

For `CO[C@@H]1[C@H](OP(=O)(O)OCCc2ccc(CCN(C)C(=O)[C@H]3[C@@H](C(=O)O)[C@@H]4CC[C@H]3O4)cc2)[C@@H](CO)O[C@H]1n1cnc2c(=O)[nH]c(N)nc21` (mixture of isomers), the Activity (HEK293 [1]) was 25% and the Activity (HEK293 [2]) was “Dose-dependent effect”.

For `CNCCc1ccc(CCO)cc1`, the inhibition (HEK293 [3]) was “inactive”.
